Experimental data published in patent US20060121117A1, “Anti-angiogenic compositions and methods of use” (ANGIOTECH PHARMACEUTICALS, INC., priority 1993, published 2006).

Experiments:
[1] = MTX release from PCL paste; assay type: physicochemical; details: high MePEG concentrations (20% MePEG in PCL)
Procedure: A known weight of a polymer (typically a 2.5 mg pellet) is added to a 15 ml test tube containing 14 ml of a buffer containing 10 mm Na2HPO4—NaH2PO4, 0.145 m NaCl and 0.4 g/l bovine serum albumin. The tubes are capped and tumbled at 37° C. At specific times all the 14 ml of the liquid buffer are removed and replaced with fresh liquid buffer.
For MTX the collected buffer is applied directly to the HPLC column with no need for extraction in methylene chloride. MTX is analyzed at 302 nm. For Vanadium containing compounds the liquid buffer is analyzed directly using a UV/VIS spectrometer in the 200 to 300 nm range.
Methotrexate (“MTX”; Sigma Chemical Co.) is ground in a pestle and mortar to reduce the particle size to below 5 microns. It is then mixed as a dry powder with polycaprolactone (molecular wt 18000 Birmingham Polymers, Alabama USA). The mixture is heated to 65° C. for 5 minutes and the molten polymer/methotrexate mixture is stirred into a smooth paste for 5 minutes. The molten paste is then taken into a 1 mL syringe, and extruded as desired.

[2] = Release from 50:50 ELVAX:poly-l-lactic acid microspheres; assay type: physicochemical; details: 18 hours of tumbling at 37° C.
Procedure: Microspheres are then prepared in a dissolution machine (Six-spindle dissolution tester, VanderKanp, Van Kell Industries Inc., U.S.A.) in triplicate at 200 rpm, 42° C., for 3 hours. Microspheres so prepared are washed twice in water and sized on the microscope.

neutrophils [3] = experiment: Neutrophil chemiluminescence assay; assay type: cell-based; details: Homo sapiens, paclitaxel at 28 μM, read-out: inhibition of the peak chemiluminescence response
Procedure: (§1) Opsonization of crystals or zymosan was done with 50% heparinized plasma at a concentration of 75 mg of CPPD or 12 mg of zymosan per ml of 50% plasma. Crystals or zymosan were incubated with plasma for 30 min. at 37° C. and then washed in excess HBSS.
All chemiluminescence studies were performed at a cell concentration of 5,000,000 cells/ml in HBSS with CPPD (50 mg/ml). In all experiments 0.5 ml of cells was added to 25 mg of CPPD or 0.5 mg of zymosan in 1.5 ml capped Eppendorf tubes. 10 μl of luminol dissolved in 25% DMSO in HBSS was added to a final concentration of 1 μM and the samples were mixed to initiate neutrophil activation by the crystals or zymosan. Chemiluminescence was monitored using an LKB Luminometer (Model 1250.) at 37° C. with shaking immediately prior to measurements to resuspend the crystals or zymosan. Control tubes contained cells, drug and luminol (crystals absent).

neutrophils [4] = experiment: Neutrophil superoxide anion generation; assay type: cell-based, human; details: paclitaxel at 28 μM
Procedure: as §1
Superoxide anion concentrations were measured using the superoxide dismutase inhibitable reduction of cytochrome c assay. Briefly, 25 mg of crystals or 0.5 mg of zymosan was placed in a 1.5 ml capped Eppendorf tube and warmed to 37° C. 0.5 ml of cells at 370 C were added together with ferricytochrome c (final concentration 1.2 mg/ml) and the cells were activated by shaking the capped tubes. […] Control tubes were set up under the same conditions with the inclusion of superoxide dismutase at 600 units per ml.

synoviocytes = experiment: 3H-thymidine incorporation into synoviocytes; assay type: cell-based; details: 6 or 24 hours incubation
Procedure: At these times, 1×10^−6 cpm of ^3H-thymidine was added to the cell culture and incubated for 2 hours at 37° C. The cells were placed through a cell harvester, washed through a filter, the filters were cut, and the amount of radiation contained in the filter sections determined. Once the amount of thymidine incorporated into the cells was ascertained, it was used to determine the rate of cell proliferation. This experiment was repeated three times and the data collated together.

c-fos mRNA = experiment: c-fos expression in chondrocytes (Northern blot); assay type: cell-based, bovine; details: 10^−6 M, 10^−7 M and 10^−8 M for 2 hours, then TNF 30 ng/ml for 1 hour
Procedure: Total RNA from bovine articular chondrocytes was isolated by the acidified guanidine isothiocyanate method and the levels of c-fos mRNA determined by Northern blot analysis. Denatured RNA samples (12 μg) were analyzed by gel electrophoresis in a denaturing 1% agarose gel, transferred to a nylon membrane (Bio-Rad), cross-linked with an ultraviolet cross-linker (Stratagene UV stratalinker 1800), and hybridized with ^32P-labeled rat c-fos DNA. mRNA for tubulin and total RNA were used as controls. To determine tubulin mRNA, the blots described above were subsequently stripped of DNA and re-probed with ^32P-labeled rat P-tubulin cDNA. This experimented was conducted three times and the data collated.

collagenase mRNA = experiment: IL-1 induced collagenase expression in chondrocytes (Northern blot); assay type: cell-based, bovine; details: 10^−6 M, 2 hours prior to IL-1 (20 ng/ml), further 16 hours
Procedure: The cells were then incubated for a further 16 hours. Total RNA from bovine articular chondrocytes was isolated by the acidified guanidine isothiocyanate method and the collagenase mRNA determined by Northern blot analysis. The RNA samples were prepared as described above using ^32P-labeled rat collagenase cDNA.

normal chondrocytes = experiment: Chondrocyte viability (Trypan blue counting); assay type: cell-based; details: up to 10^−5 M, 72 hours
neutrophils [5] = experiment: Neutrophil viability (LDH release); details: paclitaxel at 46 μM for one hour at 37° C.
Procedure: Neutrophils were prepared from freshly collected human citrated whole blood. Briefly, 400 ml of blood were mixed with 80 ml of 4% dextran T500 (Phamacia LKB, Biotechnology AB Uppsala, Sweden) in HBSS and allowed to settle for 1 h. Plasma was collected continuously and 5 ml applied to 5 ml of Ficoll Paque (Pharmacia) in 15 ml polypropylene tubes (Corning, N.Y.). Following centrifugation at 500×g for 30 min, the neutrophil pellets were washed free of erythrocytes by 20 s of hypotonic shock. Neutrophils were resuspended in HBSS, kept on ice and used for experiments within 3 h. Neutrophil viability and purity was always greater than 90%.
Cells were incubated for 20 minutes at 33° C. then for 10 minutes at 37° C. before addition to crystals or zymosan.
Control tubes containing cells with drug (crystals absent) from degranulation experiments were also assayed for LDH.

synovial fibroblasts = experiment: Synoviocyte proliferation (Trypan blue counting); details: 24 hours
neutrophils [6] = experiment: Neutrophil degranulation assay (myeloperoxidase, lysozyme)
[7] = system: chick chorioallantoic membrane (CAM); experiment: Chick chorioallantoic membrane (CAM) assay, agent in methylcellulose disks; details: for Embryos Evaluated positive/total: 48 hours
[8] = Vanadyl sulfate release from PCL paste; assay type: physicochemical
Procedure: Drug release was determined essentially as described above in Example 33, except that a 65 mg pellet of a 10% w/w VOSO4:PCL was suspended in 10 ml of water and the supernatant analyzed for released Vanadyl Sulphate using UV/Vis absorbance spectroscopy of the peak in the 200 to 300 nm range.

CN(Cc1cnc2nc(N)nc(N)c2n1)c1ccc(C(=O)N[C@@H](CCC(=O)O)C(=O)O)cc1 [MTX, Methotrexate]
amount of MTX released from the polymer [1]: substantial amounts

CC(=O)O[C@H]1C(=O)[C@@]2(C)[C@H]([C@H](OC(=O)c3ccccc3)[C@]3(O)C[C@H](OC(=O)[C@H](O)[C@@H](NC(=O)c4ccccc4)c4ccccc4)C(C)=C1C3(C)C)[C@]1(OC(C)=O)CO[C@@H]1C[C@@H]2O [Paclitaxel]
% of the total drug released from the microspheres (fluorescence assay) [2]: 6%
% of the total drug released from the microspheres (uv/vis assay) [2]: 10.3%
inhibition at 28 µM (neutrophils [3]; plasma opsonised zymosan): 45%
inhibition at 28 µM (neutrophils [3]; plasma opsonized CPPD): 52%
effect on superoxide anion production (neutrophils [4]; opsonised zymosan): less dramatic than the inhibition of CPPD activation but was significant at all times
effect on superoxide anion production (neutrophils [4]; plasma opsonised CPPD crystals): decrease in the amount of superoxide generated at all times
lowest concentration inhibiting incorporation of 3H-thymidine (synoviocytes): 10^−8 M
effect on c-fos expression (c-fos mRNA): does not alter c-fos expression
effect on IL-1 induced collagenase expression (collagenase mRNA): completely inhibited
effect on viability of normal chondrocytes (normal chondrocytes): does not affect the viability
LDH release (neutrophils [5]): less than 5 % of total
toxicity to synovial fibroblasts in vitro (synovial fibroblasts; 10^−6 M and 10^−5 M): toxic
lowest concentration inhibiting proliferation of the synoviocytes (synovial fibroblasts): 10^−7 M
inhibition at 28 µM (neutrophils [6]; Homo sapiens, Neutrophil, […], read-out: inhibition of MPO release): 50%
effect on lysozyme release (neutrophils [6]; paclitaxel at 28 μM, plasma opsonized CPPD): reduced lysozyme release
effect on myeloperoxidase release (neutrophils [6]; plasma opsonized CPPD, paclitaxel 28 μM (FIG. 32A)): significantly inhibited
Embryos Evaluated positive/total ([7]; 0.25 μg paclitaxel in methylcellulose disk): 2/11
Embryos Evaluated positive/total ([7]; 0.5 μg paclitaxel in methylcellulose disk): 6/11
Embryos Evaluated positive/total ([7]; 1 μg paclitaxel in methylcellulose disk): 6/15
Embryos Evaluated positive/total ([7]; 5 μg paclitaxel in methylcellulose disk): 20/27
Embryos Evaluated positive/total ([7]; 10 μg paclitaxel in methylcellulose disk): 16/21
Embryos Evaluated positive/total ([7]; 30 μg paclitaxel in methylcellulose disk): 31/31
time for which avascular zones did not revascularize after application ([7]; in one study): at least 7 days
earliest time at which inhibition of angiogenesis occurs after application ([7]; observed over the 48 hour duration): 9 h
avascular zone diameter ([7]; paclitaxel in methylcellulose disk, 48 hour exposure): 6 mm
avascular gradient scale (maximal avascular zone) ([7]; within 48 hours, depending on concentration): 3

O=S(=O)([O-])[O-].[O]=[V+2] [VOSO4, Vanadyl Sulfate]
amount of VOSO4 released ([8]; after 2 days, 65 mg pellet of 10% w/w VOSO4:PCL in 10 ml water): 3 mg
amount of VOSO4 released ([8]; by day 6, 65 mg pellet of 10% w/w VOSO4:PCL in 10 ml water): 5 mg
amount of VOSO4 released ([8]; in 6 hours, 65 mg pellet of 10% w/w VOSO4:PCL in 10 ml water): 1 mg
